# Source: patent publication US4190672A, “Method and compositions of treating Parkinsonisms with levodopa and 3',4'-dihydroxy-2-methylisopropiophenone” (priority 1978, dated 1980)
# Read-outs that look alike come from different tables or passages of the source.
# Key:
# [1] = test system: COMT; test: Effect of dose of DHMPP on plasma and brain OMD, levodopa and dopamine after levodopa treatment; assay type: in vivo, Male Sprague-Dawley rats
# Experimental: (§1) Male Sprague-Dawley rats weighing 200-300 g are fasted for 17 hours prior to the experiments. They are kept for at least two days on a day-light, night-dark cycle, and the experiments are conducted between 0900 and 1400 hours on the day following the fast. All injections are given intraperitoneally, and all drugs are given as a suspension in 1% methyl ceullulose.
# (§2) 2. Effect of dose of DHMPP: Absolute and levodopa control rats receive the same treatment as described above. Experimental rats were pretreated with DHMPP (50, 100, 150, 200 or 250 mg/kg) 30 min before receiving the injection of levodopa, 250 mg/kg. All animals are decapitated 90 min after receiving levodopa. Blood and brain are collected.
# 3. Analytical procedures: Brains are chilled on ice, homogenized in 3 volumes ice-cold 0.4 M perchloric acid containing 0.025% ascorbic acid, and centrifuged at 15,000 rpm for 20 min. The supernatants are collected and the above procedure is repeated on the residue. The combined supernatants are stored at -20° C. Blood samples are collected in heparinized tubes immediately after decapitation, chilled, and centrifuged, and the plasma is pipetted off. Plasma proteins are precipitated in 4 volumes ice-cold 0.4 M perchloric acid solution and centrifuged at 10,000 rpm for 15 min. Protein-free supernatants are decanted and stored at -20° C. All samples are chromatographed within two days of the experiment.
# Column chromatography of the sample extracts is carried out on a strong cation resin (Bio Rad AG 50-X8) according to the method of Prased, A. L. N., et al., Trans. Am. Soc. Neurochem. 4:105 (1973) Homovanillic acid (HVA) remains in the combined effluent and subsequent water wash; these eluates undergo solvent extractions and are assayed by the automated method of Prasad, A. L. N., et al., Biochem. Med. 9:136 (1974). Levodopa and OMD are eluted together and assayed according to the method of Fahn, S., et al., Anal. Biochem. 46:557 (1972). After dopamine is eluted, it is measured by the automated method of Atack, C. V., Brit. J. Pharmacol. All eluates are assayed within 10 days of chromatography; they are stored at -20° C., thawed and mixed thoroughly before assay.
# [2] = Behavioral responses and deaths in rats; assay type: in vivo, Male Sprague-Dawley rats
# Experimental: as §1
# 1. Effect of DHMPP with time: Absolute control rats receive no injections. Levodopa controls are given levodopa, 250 mg/kg. Experimental animals are pretreated with DHMPP, 250 mg/kg, 30 min before receiving a combined injection of DHMPP and levodopa, each 250 mg/kg. Animals are decapitated at 30 min time intervals between 0 and 120 min after levodopa administration. Blood and brain are collected.
# as §2
# [3] = crystalline solid; cited from earlier work
# [4] = test system: COMT; test: Effect of DHMPP with time on plasma and brain levodopa, OMD and dopamine after levodopa administration; assay type: in vivo, Male Sprague-Dawley rats
# Experimental: (§3) Male Sprague-Dawley rats weighing 200-300 g are fasted for 17 hours prior to the experiments. They are kept for at least two days on a day-light, night-dark cycle, and the experiments are conducted between 0900 and 1400 hours on the day following the fast. All injections are given intraperitoneally, and all drugs are given as a suspension in 1% methyl ceullulose. 1. Effect of DHMPP with time: Absolute control rats receive no injections. Levodopa controls are given levodopa, 250 mg/kg. […] Blood and brain are collected. […] Analytical procedures: […] The supernatants are collected and the above procedure is repeated on the residue. The combined supernatants are stored at -20° C. Blood samples are collected in heparinized tubes immediately after decapitation, chilled, and centrifuged, and the plasma is pipetted off. Plasma proteins are precipitated in 4 volumes ice-cold 0.4 M perchloric acid solution and centrifuged at 10,000 rpm for 15 min. Protein-free supernatants are decanted and stored at -20° C. […] Am. Soc. Neurochem. 4:105 (1973) Homovanillic acid (HVA) remains in the combined effluent and subsequent water wash; these eluates undergo solvent extractions and are assayed by the automated method of […]., et al., Biochem. […] Levodopa and OMD are eluted together and assayed according to the method of Fahn, S., et al., Anal. Biochem. 46:557 (1972). After dopamine is eluted, it is measured by the automated method of […]., Brit. J. Pharmacol. All eluates are assayed within 10 days of chromatography; they are stored at -20° C., thawed and mixed thoroughly before assay.
# [5] = test system: catechol-O-methyl transferase (COMT); settings: cited from earlier work
# [6] = Effect of DHMPP with time on plasma and brain levodopa, OMD and dopamine after levodopa administration; assay type: in vivo, Male Sprague-Dawley rats; settings: rat, ip, 250 mg/kg
# Experimental: as §3
# [7] = all doses of DHMPP, 90 min after levodopa
# [8] = DHMPP 250 mg/kg pretreatment plus DHMPP and levodopa 250 mg/kg each, i.p.
compound,measurement,setting,value
"CC(C)C(=O)c1ccc(O)c(O)c1 [DHMPP, 3',4'-Dihydroxy-2-methyl-propiophenone]",inhibition of OMD accumulation in plasma relative to levodopa controls,"[1]; DHMPP 100 mg/kg i.p., 90 min after levodopa",completely inhibits
same,plasma OMD accumulation,"[1]; DHMPP 100 mg/kg or greater i.p., 90 min after levodopa",completely blocked
same,plasma levodopa levels,"[1]; DHMPP 50-250 mg/kg i.p., 90 min after levodopa 250 mg/kg",not affected
same,accumulation of OMD in brain,"[1]; DHMPP 100 and 200 mg/kg i.p., 90 min after levodopa",inhibited
same,inhibition at 100 mg/kg,"[1]; Rattus norvegicus, ip, 1.5 h, DHMPP 100 mg/kg i.p., 90 min after levodopa, read-out: inhibition of OMD accumulation in brain relative to levodopa controls",80%
same,dopamine levels in brain,[1]; [7],not significantly altered
same,levodopa levels in brain,[1]; [7],not significantly altered
same,degree of lethargy versus dosage of DHMPP,[2]; DHMPP 50-250 mg/kg i.p.,related to the dosage of DHMPP employed
same,motor activity and behavioral responses to DHMPP,"[2]; DHMPP i.p., within 10 min of injection","striking reduction in motor activity within 10 min of injection, including prostration, lying on one side, rapid breathing and loss of responsiveness to handling and other stimuli"
same,piloerection in animals receiving both inhibitor and levodopa,"[2]; DHMPP plus levodopa, i.p.",Little piloerection is apparent
same,deaths at lower doses,"[2]; rat, in vivo",Deaths do not occur
same,"deaths, dose-response experiment","[2]; rat, in vivo, ip, 250 mg/kg",two of six
same,water solubility,[3],water-soluble
same,increase in plasma levodopa levels on inhibition of COMT,[4]; [8],three-fold
same,prevention of measurable accumulation of OMD in plasma,[4]; [8],completely prevents measurable accumulation of OMD in plasma
same,increase in brain levodopa concentration with COMT inhibition,"[4]; DHMPP plus levodopa i.p., 30 min time point",more than two-fold
same,increase in brain dopamine level on inhibition of COMT,"[4]; DHMPP plus levodopa i.p., at 60 min",more than two-fold
same,accumulation of brain OMD on DHMPP treatment,"[4]; DHMPP plus levodopa, i.p.",blocked
same,levodopa and dopamine concentrations in brain (conclusion),[4]; animals treated with DHMPP and levodopa,striking enhancement and prolongation of levodopa and dopamine concentrations in the brain
same,accumulation of 3-O-methylated derivatives of catechols in plasma and brain (conclusion),"[4]; high dosage, acute levodopa administration",does inhibit the accumulation of 3-O-methylated derivatives of catechols in plasma and brain
same,inhibition of COMT (literature),[5],inhibition of the enzyme catechol-O-methyl transferase (COMT)
"N[C@@H](Cc1ccc(O)c(O)c1)C(=O)O [levodopa, 3-(3,4-dihydroxyphenyl)-L-alanine]",effect of levodopa on lethargic symptoms induced by DHMPP,[2]; levodopa 250 mg/kg i.p. after DHMPP,"markedly attenuates all lethargic symptoms induced by DHMPP, but does not abolish them"
same,behavioral responses to levodopa,"[2]; levodopa 250 mg/kg i.p., all rats treated with levodopa","increased locomotor activity, erection of hair (piloerection), abnormal protrusion of the eyeball (exophthalmos) and other signs of sympathetic stimulation"
same,OMD accumulation in plasma after levodopa administration,[4]; levodopa 250 mg/kg i.p.,progressively accumulates in plasma
same,time course of brain OMD levels,"[4]; rat, in vivo",rise slowly for the first 30 min in levodopa and absolute control animals and then increase more rapidly and linearly
same,time of maximal dopamine concentration in brain,"[4]; rat, in vivo",30 to 60 min
same,brain OMD level,"[4]; rat, in vivo, 240 min",18 nmol/g
same,Tmax,"[6]; in vivo, time of peak levodopa in brain",30 min
same,Tmax,"[6]; plasma, DHMPP plus levodopa i.p., after levodopa administration, read-out: time of peak plasma levodopa level with inhibition of COMT (converted)",90 min
same,Tmax,"[6]; plasma, levodopa 250 mg/kg i.p., alone or with DHMPP, after levodopa injection, read-out: time of maximal plasma levels of levodopa (converted)",30 min
